From EP4768499A1, “MACROCYCLIC PEPTIDE COMPOUND HAVING CELL MEMBRANE PERMEABILITY AND METABOLIC STABILITY, AND LIBRARY CONTAINING SAME” (Chugai Seiyaku Kabushiki Kaisha, priority 2023, dated 2025) come the findings set out here.

The nature of data set [1]: Metabolic stability test: liver microsomal stability assay. Format: in vitro ADME, mouse. Conditions: mouse liver microsomes 0.5 mg protein/mL, compound 1 µM; for microsomal CLint at 1 µM: male, pH 7.4, presence of NADPH, read-out: Mouse Hepatic Microsome CLh,int NADPH(+); for Mouse Hepatic Microsome CLh,int NADPH(-): absence of NADPH. For orientation: Liver microsomes are vesicles of endoplasmic reticulum, rich in cytochrome P450 enzymes.

Data set [2] is described as follows: Membrane permeability test using Caco-2 cells with preincubation. The class given is in vitro ADME. The note with it: Caco-2; preincubation 20 to 24 hours; Apical FaSSIF/HBSS pH 6.0, Basal HBSS 4% BSA pH 7.4; 180 minutes; read-out: Caco2 Papp. (In general: Passage across Caco-2 layers is used to estimate intestinal permeability.)
Another data set relates to Caco-2 cells. The data set is described as above. Format: in vitro ADME. Conditions: Caco-2 cells, preincubation 20 to 24 hours; apical FaSSIF/HBSS 1% DMSO pH 6.0, basal HBSS 4% BSA pH 7.4; basal sample at 180 minutes.

Starred links: 1 amine or outer side, 2 acyl side, 3 side chain; linkers in the order of their positions; H or OH if unused. Non-standard residues stand in square brackets, D forms with d. Residues, ends and D or L forms follow the SMILES beside them. *: point of attachment. NMedβ3hAla = C[C@H](CC(=O)[*:2])N(C)[*:1]; NMeF = CN[C@@H](Cc1ccccc1)C(=O)O; NMeGABA = CN(CCCC(=O)[*:2])[*:1]; NMeI = CC[C@H](C)[C@H](NC)C(=O)O; NMeT = CN[C@H](C(=O)O)[C@@H](C)O; hPhe = N[C@@H](CCc1ccccc1)C(=O)O; NMeβAla = CN(CCC(=O)[*:2])[*:1]; NMeL = CN[C@@H](CC(C)C)C(=O)O; NMeV = CN[C@H](C(=O)O)C(C)C; NMeAbu = CC[C@H](NC)C(=O)O; NMeA = CN[C@@H](C)C(=O)O; Abu = CC[C@H](N)C(=O)O; Sar = CNCC(=O)O; tBu = CC(C)(C)*

On to `CC[C@H](C)[C@@H]1NC(=O)[C@H](CC(C)C)N(C)C(=O)[C@H](CC(C)C)NC(=O)CCN(C)C(=O)C[C@@H](C)N(C)C(=O)CN(C)C(=O)[C@H](CC(C)C)N(C)C(=O)[C@@H]2CCCN2C(=O)[C@H](CC(C)C)N(C)C(=O)[C@H](COC(C)(C)C)NC(=O)[C@H]([C@@H](C)CC)N(C)C(=O)[C@H](CCc2ccccc2)NC(=O)[C@H](Cc2ccccc2)N(C)C1=O` [pd142] (cyclo(I[NMeF][hPhe][NMeI]S(tBu)[NMeL]P[NMeL][Sar][NMedβ3hAla][NMeβAla]L[NMeL])), for which, in data set [1], the microsomal CLint at 1 µM turned out to be 31.7 µL/min/mg and the “Mouse Hepatic Microsome CLh,int NADPH(-)” value stood at 33.9 µL/min/mg Protein. In data set [2], the Papp A→B came to 0.71 ×10⁻⁶ cm/s. In the data set on Caco-2 cells, the “Caco2 Papp (10^-6 cm/sec)” value was 0.71 10^-6 cm/sec.

Turning to `CC[C@H](C)[C@@H]1NC(=O)[C@H](CC(C)C)N(C)C(=O)CCCN(C)C(=O)C[C@@H](C)N(C)C(=O)[C@H](CC(C)C)NC(=O)[C@H](CC)N(C)C(=O)[C@H](C(C)C)N(C)C(=O)[C@H](C)N(C)C(=O)[C@H](CC(C)C)N(C)C(=O)[C@H](COC(C)(C)C)NC(=O)[C@H](Cc2ccccc2)N(C)C(=O)[C@H](Cc2ccccc2)N(C)C(=O)CN(C)C1=O` [pd143] (cyclo(I[Sar][NMeF][NMeF]S(tBu)[NMeL][NMeA][NMeV][NMeAbu]L[NMedβ3hAla][NMeGABA][NMeL])), in data set [1], the microsomal CLint at 1 µM was 39.3 µL/min/mg and the “Mouse Hepatic Microsome CLh,int NADPH(-)” value is given as 21.0 µL/min/mg Protein. The Papp A→B in data set [2] is 4.73 ×10⁻⁶ cm/s. Also, the “Caco2 Papp (10^-6 cm/sec)” value with Caco-2 cells was 4.73 10^-6 cm/sec.

Turning to `CC[C@H](C)[C@@H]1NC(=O)[C@H](C)N(C)C(=O)[C@H]([C@@H](C)O)NC(=O)[C@H](CC(C)C)N(C)C(=O)[C@H](COC(C)(C)C)NC(=O)[C@H](Cc2ccccc2)N(C)C(=O)[C@H]([C@@H](C)CC)NC(=O)CNC(=O)[C@H](Cc2ccccc2)N(C)C(=O)[C@H](CC(C)C)N(C)C(=O)CCCN(C)C(=O)C[C@@H](C)N(C)C(=O)[C@H](CC(C)C)NC1=O` [pd145] (cyclo(GI[NMeF]S(tBu)[NMeL]T[NMeA]IL[NMedβ3hAla][NMeGABA][NMeL][NMeF])), in data set [1], the microsomal CLint at 1 µM turned out to be 35.5 µL/min/mg and the “Mouse Hepatic Microsome CLh,int NADPH(-)” value is listed as 35.7 µL/min/mg Protein. The Papp A→B in data set [2] was determined as 0.05 ×10⁻⁶ cm/s. The “Caco2 Papp (10^-6 cm/sec)” value in the data set with Caco-2 cells is 0.05 10^-6 cm/sec.

For `CC[C@@H]1NC(=O)[C@H](Cc2ccccc2)N(C)C(=O)[C@@H]2CCCN2C(=O)[C@H](CC(C)C)N(C)C(=O)[C@H](C(C)C)NC(=O)[C@H](CC(C)C)N(C)C(=O)[C@H]([C@@H](C)O)NC(=O)[C@H](Cc2ccccc2)N(C)C(=O)CN(C)C(=O)C[C@@H](C)N(C)C(=O)[C@H](C(C)C)NC(=O)[C@H](COC(C)(C)C)NC(=O)[C@H](C)N(C)C1=O` [pd146] (cyclo([Abu][NMeA]S(tBu)V[NMedβ3hAla][Sar][NMeF]T[NMeL]V[NMeL]P[NMeF])), in data set [1], the microsomal CLint at 1 µM amounted to 20.3 µL/min/mg and the “Mouse Hepatic Microsome CLh,int NADPH(-)” value was found to be 14.1 µL/min/mg Protein. The Papp A→B in data set [2] was 0.2 ×10⁻⁶ cm/s. The “Caco2 Papp (10^-6 cm/sec)” value in the data set with Caco-2 cells was 0.20 10^-6 cm/sec.

`CC[C@H]1C(=O)N[C@@H](COC(C)(C)C)C(=O)N(C)[C@@H](C(C)C)C(=O)N(C)[C@@H](C)C(=O)N(C)[C@H](C)CC(=O)N[C@H](C(C)C)C(=O)N(C)[C@@H](CC(C)C)C(=O)N[C@@H](C)C(=O)N(C)[C@@H](C(C)C)C(=O)N(C)[C@@H](CC(C)C)C(=O)NCC(=O)N(C)[C@@H]([C@@H](C)O)C(=O)N(C)[C@@H](Cc2ccccc2)C(=O)N1C` [pd147] (cyclo(A[NMeV][NMeL]G[NMeT][NMeF][NMeAbu]S(tBu)[NMeV][NMeA][NMedβ3hAla][dV][NMeL])): in data set [1], the microsomal CLint at 1 µM was determined as 13.1 µL/min/mg and the “Mouse Hepatic Microsome CLh,int NADPH(-)” value is 14.8 µL/min/mg Protein. Besides, the Papp A→B in data set [2] is 0.26 ×10⁻⁶ cm/s. Besides, the “Caco2 Papp (10^-6 cm/sec)” value in the data set with Caco-2 cells is reported as 0.26 10^-6 cm/sec.

With `CC[C@H](C)[C@@H]1NC(=O)[C@H](CC(C)C)N(C)C(=O)[C@H](C)N(C)C(=O)[C@H](C)NC(=O)C[C@@H](C)N(C)C(=O)[C@H](CC(C)C)N(C)C(=O)[C@H](C)N(C)C(=O)CN(C)C(=O)[C@H]([C@@H](C)O)NC(=O)[C@H](Cc2ccccc2)N(C)C(=O)[C@H](CC(C)C)N(C)C(=O)[C@H](C(C)C)NC(=O)[C@H]([C@@H](C)CC)N(C)C1=O` [pd148] (cyclo(A[NMeA][NMeL]I[NMeI]V[NMeL][NMeF]T[Sar][NMeA][NMeL][NMedβ3hAla])), in data set [1], the microsomal CLint at 1 µM amounted to 25.2 µL/min/mg and the “Mouse Hepatic Microsome CLh,int NADPH(-)” value was 16.8 µL/min/mg Protein. Besides, in data set [2], the Papp A→B was 0.12 ×10⁻⁶ cm/s. Also, in the data set with Caco-2 cells, the “Caco2 Papp (10^-6 cm/sec)” value is reported as 0.12 10^-6 cm/sec.

In the case of `CC[C@@H]1NC(=O)[C@H](Cc2ccccc2)N(C)C(=O)[C@@H]2CCCN2C(=O)[C@H](CC(C)C)N(C)C(=O)[C@H](C(C)C)NC(=O)[C@H](CC(C)C)N(C)C(=O)[C@H]([C@@H](C)O)NC(=O)[C@H](Cc2ccccc2)N(C)C(=O)CN(C)C(=O)C[C@@H](C)N(C)C(=O)[C@H](C(C)C)NC(=O)[C@H](CC)N(C)C(=O)[C@H](C)N(C)C1=O` [pd149] (cyclo([Abu][NMeA][NMeAbu]V[NMedβ3hAla][Sar][NMeF]T[NMeL]V[NMeL]P[NMeF])), in data set [1], the microsomal CLint at 1 µM was 10.8 µL/min/mg and the “Mouse Hepatic Microsome CLh,int NADPH(-)” value was found to be 1.5 µL/min/mg Protein. The Papp A→B in data set [2] was found to be 0.2 ×10⁻⁶ cm/s. Also, the “Caco2 Papp (10^-6 cm/sec)” value in the data set on Caco-2 cells is listed as 0.20 10^-6 cm/sec.
